Reference: US11786492B2, “Therapeutic agent for phosphodiesterase inhibition and its related disorders” (Novalead Pharma Inc, priority 2017, dated 2023)
Where two headings read alike, the source gives them in different places. Marks after values point to notes of the source that are not given here.

How the values were obtained:
PDE4 (Human U937 cells) = assay: Radiolabeled enzyme assay PDE4; format: biochemical; conditions: 1.01 μM [3H]cAMP+cAMP
Procedure: (§1) Enzyme assays have been optimized for incubation time, substrate concentration and method of end-product determination.

PDE2 (Human platelets) = molecular target: T1, PDE2 (Human platelets) (Homo sapiens, UniProt O00408); assay: Radiolabeled enzyme assay PDE2; format: biochemical; conditions: read-out: % inhibition at 30 μM, 1.01 μM [3H]cAMP+cAMP
T1 construct: PDE2 (Human platelets); from tissue; host or cells: human platelets
T1 sequence (O00408 whole entry): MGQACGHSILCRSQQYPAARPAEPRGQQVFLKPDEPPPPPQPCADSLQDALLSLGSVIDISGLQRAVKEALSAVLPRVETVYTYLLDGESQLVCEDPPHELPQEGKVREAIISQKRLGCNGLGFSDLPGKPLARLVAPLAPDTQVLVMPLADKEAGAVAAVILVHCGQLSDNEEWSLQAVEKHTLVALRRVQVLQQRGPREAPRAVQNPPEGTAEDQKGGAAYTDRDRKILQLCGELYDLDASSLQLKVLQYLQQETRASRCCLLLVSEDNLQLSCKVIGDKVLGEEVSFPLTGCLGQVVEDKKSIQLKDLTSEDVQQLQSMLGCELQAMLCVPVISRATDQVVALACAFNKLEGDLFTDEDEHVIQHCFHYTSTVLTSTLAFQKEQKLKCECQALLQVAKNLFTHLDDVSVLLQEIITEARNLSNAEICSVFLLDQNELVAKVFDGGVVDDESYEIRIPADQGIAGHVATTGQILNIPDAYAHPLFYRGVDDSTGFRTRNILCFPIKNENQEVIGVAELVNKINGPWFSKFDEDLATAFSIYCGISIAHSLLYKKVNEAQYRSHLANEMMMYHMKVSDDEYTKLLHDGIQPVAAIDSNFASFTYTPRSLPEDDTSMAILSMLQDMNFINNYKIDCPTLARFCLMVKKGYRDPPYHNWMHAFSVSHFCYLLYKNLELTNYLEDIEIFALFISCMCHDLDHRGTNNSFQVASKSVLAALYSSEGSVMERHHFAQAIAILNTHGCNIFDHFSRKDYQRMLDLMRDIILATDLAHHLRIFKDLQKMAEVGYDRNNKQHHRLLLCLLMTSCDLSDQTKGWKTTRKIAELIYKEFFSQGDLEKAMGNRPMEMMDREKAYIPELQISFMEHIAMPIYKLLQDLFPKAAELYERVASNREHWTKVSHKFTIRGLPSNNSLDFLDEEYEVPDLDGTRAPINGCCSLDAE
Procedure: as §1

PDE5 (Human platelets) = molecular target: T2, PDE5 (Human platelets) (Homo sapiens, UniProt O76074); assay: Radiolabeled enzyme assay PDE5; format: biochemical; conditions: read-out: % inhibition at 30 μM, 1.01 μM [3H]cGMP+cGMP
T2 construct: PDE5 (Human platelets); from tissue; host or cells: human platelets
Procedure: as §1

PDE1 (Bovine brain) = assay: Radiolabeled enzyme assay PDE1; format: biochemical; conditions: 1.01 μM [3H]cAMP+cAMP
Procedure: as §1

HaCaT cells = assay: Keratinocyte (HaCaT) proliferation, MTT assay; format: cell-based, human; conditions: for IC50: Homo sapiens, HaCaT, read-out: IC50 of cell proliferation
Procedure: An experiment to check keratinocyte proliferation inhibitory activity of selected compounds of Formula-I was performed to establish its application in skin disorders related to keratinocyte hyper-proliferation. HaCaT cells, a human immortalized cell line derived from keratinocytes, representing hyper-proliferating keratinocytes was investigated for anti-proliferative potential of the selected compounds by MTT assay.

PDE3 (Human platelets) = molecular target: T3, PDE3 (Human platelets) (Homo sapiens, UniProt Q14432); assay: Radiolabeled enzyme assay PDE3; format: biochemical; conditions: read-out: % inhibition at 30 μM, 1.01 μM [3H]cAMP+cAMP
T3 construct: PDE3 (Human platelets); from tissue; host or cells: human platelets
T3 sequence (Q14432 whole entry): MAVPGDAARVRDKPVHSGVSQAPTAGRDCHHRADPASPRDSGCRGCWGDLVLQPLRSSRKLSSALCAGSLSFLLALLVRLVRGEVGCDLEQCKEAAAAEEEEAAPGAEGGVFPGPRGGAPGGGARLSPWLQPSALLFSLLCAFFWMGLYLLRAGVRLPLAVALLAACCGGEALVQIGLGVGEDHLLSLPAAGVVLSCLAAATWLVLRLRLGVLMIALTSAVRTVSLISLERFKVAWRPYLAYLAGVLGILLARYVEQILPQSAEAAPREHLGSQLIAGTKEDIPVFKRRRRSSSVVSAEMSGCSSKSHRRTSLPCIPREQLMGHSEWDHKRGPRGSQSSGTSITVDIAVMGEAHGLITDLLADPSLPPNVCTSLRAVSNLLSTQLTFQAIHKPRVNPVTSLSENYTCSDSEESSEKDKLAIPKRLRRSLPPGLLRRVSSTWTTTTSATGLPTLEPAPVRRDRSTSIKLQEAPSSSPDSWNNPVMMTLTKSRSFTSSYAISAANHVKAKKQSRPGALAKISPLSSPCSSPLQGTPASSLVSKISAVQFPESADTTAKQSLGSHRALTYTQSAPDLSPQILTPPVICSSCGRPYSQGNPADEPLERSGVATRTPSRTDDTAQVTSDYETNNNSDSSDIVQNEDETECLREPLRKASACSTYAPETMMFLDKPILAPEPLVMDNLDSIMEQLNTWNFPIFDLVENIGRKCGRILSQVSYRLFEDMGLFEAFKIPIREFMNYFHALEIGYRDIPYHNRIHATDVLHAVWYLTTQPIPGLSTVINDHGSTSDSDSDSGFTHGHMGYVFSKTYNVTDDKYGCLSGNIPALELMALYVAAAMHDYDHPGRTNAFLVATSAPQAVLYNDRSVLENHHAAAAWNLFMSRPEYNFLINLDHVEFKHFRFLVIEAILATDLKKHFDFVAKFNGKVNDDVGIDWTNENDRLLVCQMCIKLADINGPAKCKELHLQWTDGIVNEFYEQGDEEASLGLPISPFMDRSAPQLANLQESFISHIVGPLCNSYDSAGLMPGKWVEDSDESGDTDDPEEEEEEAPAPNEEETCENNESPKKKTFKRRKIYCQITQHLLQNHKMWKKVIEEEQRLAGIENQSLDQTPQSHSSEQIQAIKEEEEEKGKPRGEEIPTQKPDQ
Procedure: as §1

[1] = system: Imiquimod induced psoriasis in BALB/c mice; assay: Imiquimod induced psoriasis model in Balb/c mice; conditions: for % inhibition of Ear inflamn. / Histopathology Scores Epidermal Thickness / Histopathology Scores Hyperkeratosis / Histopathology Scores Rete Peg Prolifern. / PASI score / Spleen weight / IL23 Levels (pg/ml): twice daily; for IL23 Levels (pg/ml): ear tissue lysate
Procedure: BALB/c mice (Sex: Female, Age: 7-8 Weeks) were used for induction of psoriasis using IMQ. Topical application of imiquimod (IMQ) in mice can induce and exacerbate psoriasis closely resembling human psoriasis. […] 3%, 4% and 5% and positive control of Tenovate (Clobetasol) 0.05% cream. In all 63 mg cream containing 5% of IMQ was applied to dorsal area (shaved back) and right ear for 8 days. Topical formulations from Example 7 were used during this experiment.
The parameters investigated were ear thickness change, % inhibition of ear inflammation, Psoriatic Area Severity Index (PASI). Histopathology was performed of right ear and dorsal skin by H & E staining. The biomarker in this study was inflammatory cytokine IL-23 analyzed by ELISA obtained from tissue lysate of ear region where IMQ and doses were applied.

PDE7A = PDE7A (Homo sapiens, UniProt Q13946); assay: Fluorescence polarization assay PDE7A; format: biochemical; conditions: substrate cAMP
PDE7A, sequence (Q13946 whole entry, species assumed): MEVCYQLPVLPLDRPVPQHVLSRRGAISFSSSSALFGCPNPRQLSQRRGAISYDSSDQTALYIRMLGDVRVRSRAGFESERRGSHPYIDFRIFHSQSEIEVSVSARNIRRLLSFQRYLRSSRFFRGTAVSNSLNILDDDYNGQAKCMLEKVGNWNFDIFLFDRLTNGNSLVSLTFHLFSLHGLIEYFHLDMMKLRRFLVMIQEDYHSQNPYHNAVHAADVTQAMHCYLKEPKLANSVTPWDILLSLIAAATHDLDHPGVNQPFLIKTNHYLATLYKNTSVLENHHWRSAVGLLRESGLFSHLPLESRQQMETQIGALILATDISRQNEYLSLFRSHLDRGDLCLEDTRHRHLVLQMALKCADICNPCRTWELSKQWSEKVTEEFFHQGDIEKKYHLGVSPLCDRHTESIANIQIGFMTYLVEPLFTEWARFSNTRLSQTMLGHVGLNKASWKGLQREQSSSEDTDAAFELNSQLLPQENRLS
Procedure: (§2) An experiment to check inhibition of various subtypes of the target Phosphodiesterase (PDE) enzyme in in-vitro assay was performed. […] PDE1A, PDE2A, PDE4A, PDE4B, PDE4C, PDE4D, PDE5A, PDE7A, PDE9A, PDE10A.

PDE4C = PDE4C (Homo sapiens, UniProt Q08493); assay: Fluorescence polarization assay PDE4C; format: biochemical; conditions: substrate cAMP
PDE4C, sequence (Q08493 whole entry, species assumed): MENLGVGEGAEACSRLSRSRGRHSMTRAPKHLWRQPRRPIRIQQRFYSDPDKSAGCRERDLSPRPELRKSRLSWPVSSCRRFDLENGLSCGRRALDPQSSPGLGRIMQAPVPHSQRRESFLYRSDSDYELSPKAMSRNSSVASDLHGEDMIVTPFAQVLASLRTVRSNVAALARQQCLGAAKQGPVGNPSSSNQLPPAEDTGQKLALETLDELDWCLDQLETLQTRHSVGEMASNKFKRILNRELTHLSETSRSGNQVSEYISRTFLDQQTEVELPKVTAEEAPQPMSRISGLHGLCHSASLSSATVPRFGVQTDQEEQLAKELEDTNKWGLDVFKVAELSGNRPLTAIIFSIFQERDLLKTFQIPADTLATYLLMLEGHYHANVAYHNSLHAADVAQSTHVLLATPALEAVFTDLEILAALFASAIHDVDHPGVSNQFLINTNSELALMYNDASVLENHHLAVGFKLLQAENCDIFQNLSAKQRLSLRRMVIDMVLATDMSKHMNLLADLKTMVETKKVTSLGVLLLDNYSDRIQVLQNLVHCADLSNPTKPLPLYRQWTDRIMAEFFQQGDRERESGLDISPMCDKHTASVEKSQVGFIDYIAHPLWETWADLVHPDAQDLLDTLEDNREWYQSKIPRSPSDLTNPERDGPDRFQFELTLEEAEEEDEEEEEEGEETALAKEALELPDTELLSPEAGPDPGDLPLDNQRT
Procedure: as §2

PDE5A = PDE5A (Homo sapiens, UniProt O76074); assay: Fluorescence polarization assay PDE5A; format: biochemical; conditions: substrate cGMP
Procedure: as §2

With `CC(=O)Oc1ccccc1C(=O)Nc1ncc([N+](=O)[O-])s1` [Nitazoxanide] the “% inhibition at 30 μM” value (PDE4 (Human U937 cells)) was 89%, the inhibition at 30 µM (PDE2 (Human platelets)) was 13% and the inhibition at 30 µM (PDE5 (Human platelets)) was 9%. For the same compound, the “% inhibition at 30 μM” value (PDE1 (Bovine brain)) was 18%, the “Cell proliferation (% of Control)” value (HaCaT cells; 0.01 μM, 24 h) was 126.3 % of Control and the “Cell proliferation (% of Control)” value (HaCaT cells; 0.01 μM, 48 h) was 113.7 % of Control. The “Cell proliferation (% of Control)” value (HaCaT cells; 0.01 μM, 72 h) was 114.6 % of Control, the “Cell proliferation (% of Control)” value (HaCaT cells; 0.1 μM, 24 h) was 114.3 % of Control and the “Cell proliferation (% of Control)” value (HaCaT cells; 0.1 μM, 48 h) was 115.2 % of Control. The “Cell proliferation (% of Control)” value (HaCaT cells; 0.1 μM, 72 h) was 102.4 % of Control, the “Cell proliferation (% of Control)” value (HaCaT cells; 0.5 μM, 24 h) was 120.3 % of Control and the “Cell proliferation (% of Control)” value (HaCaT cells; 0.5 μM, 48 h) was 113.4 % of Control. The “Cell proliferation (% of Control)” value (HaCaT cells; 0.5 μM, 72 h) was 106.2 % of Control, the “Cell proliferation (% of Control)” value (HaCaT cells; 1 μM, 24 h) was 123 % of Control and the “Cell proliferation (% of Control)” value (HaCaT cells; 1 μM, 48 h) was 110.8 % of Control. For the same compound, the “Cell proliferation (% of Control)” value (HaCaT cells; 1 μM, 72 h) was 101.7 % of Control, the “Cell proliferation (% of Control)” value (HaCaT cells; 5 μM, 24 h) was 121.6 % of Control and the “Cell proliferation (% of Control)” value (HaCaT cells; 5 μM, 48 h) was 91.8 % of Control. The “Cell proliferation (% of Control)” value (HaCaT cells; 5 μM, 72 h) was 82.9 % of Control, the “Cell proliferation (% of Control)” value (HaCaT cells; 10 μM, 24 h) was 103.8 % of Control and the “Cell proliferation (% of Control)” value (HaCaT cells; 10 μM, 48 h) was 77 % of Control. For the same compound, the “Cell proliferation (% of Control)” value (HaCaT cells; 10 μM, 72 h) was 69.5 % of Control, the “Cell proliferation (% of Control)” value (HaCaT cells; 50 μM, 24 h) was 92.6 % of Control and the “Cell proliferation (% of Control)” value (HaCaT cells; 50 μM, 48 h) was 69.6 % of Control. For the same compound, the “Cell proliferation (% of Control)” value (HaCaT cells; 50 μM, 72 h) was 49.6 % of Control, the “Cell proliferation (% of Control)” value (HaCaT cells; 100 μM, 24 h) was 89.7 % of Control and the “Cell proliferation (% of Control)” value (HaCaT cells; 100 μM, 48 h) was 61 % of Control. The “Cell proliferation (% of Control)” value (HaCaT cells; 100 μM, 72 h) was 33.1 % of Control, the IC50 (HaCaT cells; 72 h) was 39.9 µM and the inhibition at 30 µM (PDE3 (Human platelets)) was -4%. For the same compound, the “% inhibition of Ear inflamn.” value ([1]; 3% topical) was −5.9%, the “Histopathology Scores Epidermal Thickness” value ([1]; 3% topical) was 5.6 ± 0.4 and the “Histopathology Scores Hyperkeratosis” value ([1]; 3% topical) was 1.0 ± 0.0^$. For the same compound, the “Histopathology Scores Rete Peg Prolifern.” value ([1]; 3% topical) was 1.2 ± 0.2, the PASI score ([1]; 3% topical) was 14.2 ± 5.1 and the “Spleen weight” value ([1]; 3% topical, Day 9) was 203.6 ± 22.6 mg. For the same compound, the “IL23 Levels (pg/ml)” value ([1]; 3% topical) was 147.79^# pg/ml, the “% inhibition of Ear inflamn.” value ([1]; 4% topical) was 26.1% and the “Histopathology Scores Epidermal Thickness” value ([1]; 4% topical) was 4.7 ± 0.3. The “Histopathology Scores Hyperkeratosis” value ([1]; 4% topical) was 1.3 ± 0.2, the “Histopathology Scores Rete Peg Prolifern.” value ([1]; 4% topical) was 1.0 ± 0.3 and the PASI score ([1]; 4% topical) was 21.5 ± 3.4. The “Spleen weight” value ([1]; 4% topical, Day 9) was 274.7 ± 54.3 mg, the “IL23 Levels (pg/ml)” value ([1]; 4% topical) was 128.67* pg/ml and the “% inhibition of Ear inflamn.” value ([1]; 5% topical) was 40.9%. The “Histopathology Scores Epidermal Thickness” value ([1]; 5% topical) was 5.3 ± 0.6, the “Histopathology Scores Hyperkeratosis” value ([1]; 5% topical) was 1.1 ± 0.1 and the “Histopathology Scores Rete Peg Prolifern.” value ([1]; 5% topical) was 1.1 ± 0.1. The PASI score ([1]; 5% topical) was 13.1 ± 1.6, the “Spleen weight” value ([1]; 5% topical, Day 9) was 204.1 ± 15.3 mg and the “IL23 Levels (pg/ml)” value ([1]; 5% topical) was 89.45* pg/ml. The “Spleen weight vs disease control (in words)” value ([1]; Niclosamide 2%, Nitazoxanide 3% and 5%, Clobetasol 0.05%, Day 9) was “marginal reduction in spleen weight”, the “IL-23 level in ear tissue homogenates (in words)” value ([1]; different doses) was “reduction of IL-23 level” and the “Hyperkeratosis (in words)” value ([1]; ear lobe histopathology) was “significant reduction in Hyperkeratosis”.
In the case of `O=C(Nc1ncc([N+](=O)[O-])s1)c1ccccc1O` [Tizoxanide], the IC50 (PDE7A) is reported as 134 µM, the IC50 (PDE4C) is reported as 366 µM and the “Cell proliferation (% of Control)” value (HaCaT cells; 0.01 μM, 24 h) is reported as 98.2 % of Control. For the same compound, the “Cell proliferation (% of Control)” value (HaCaT cells; 0.01 μM, 48 h) was 109.5 % of Control, the “Cell proliferation (% of Control)” value (HaCaT cells; 0.01 μM, 72 h) was 87.4 % of Control and the “Cell proliferation (% of Control)” value (HaCaT cells; 0.1 μM, 24 h) was 93.9 % of Control. For the same compound, the “Cell proliferation (% of Control)” value (HaCaT cells; 0.1 μM, 48 h) was 120.1 % of Control, the “Cell proliferation (% of Control)” value (HaCaT cells; 0.1 μM, 72 h) was 82.7 % of Control and the “Cell proliferation (% of Control)” value (HaCaT cells; 0.5 μM, 24 h) was 93.2 % of Control. For the same compound, the “Cell proliferation (% of Control)” value (HaCaT cells; 0.5 μM, 48 h) was 108.9 % of Control, the “Cell proliferation (% of Control)” value (HaCaT cells; 0.5 μM, 72 h) was 87.7 % of Control and the “Cell proliferation (% of Control)” value (HaCaT cells; 1 μM, 24 h) was 99.7 % of Control. For the same compound, the “Cell proliferation (% of Control)” value (HaCaT cells; 1 μM, 48 h) was 112.4 % of Control, the “Cell proliferation (% of Control)” value (HaCaT cells; 1 μM, 72 h) was 81 % of Control and the “Cell proliferation (% of Control)” value (HaCaT cells; 5 μM, 24 h) was 101.6 % of Control. For the same compound, the “Cell proliferation (% of Control)” value (HaCaT cells; 5 μM, 48 h) was 89.3 % of Control, the “Cell proliferation (% of Control)” value (HaCaT cells; 5 μM, 72 h) was 77.9 % of Control and the “Cell proliferation (% of Control)” value (HaCaT cells; 10 μM, 24 h) was 94.9 % of Control. For the same compound, the “Cell proliferation (% of Control)” value (HaCaT cells; 10 μM, 48 h) was 74.1 % of Control, the “Cell proliferation (% of Control)” value (HaCaT cells; 10 μM, 72 h) was 64.3 % of Control and the “Cell proliferation (% of Control)” value (HaCaT cells; 50 μM, 24 h) was 67.3 % of Control. For the same compound, the “Cell proliferation (% of Control)” value (HaCaT cells; 50 μM, 48 h) was 59.9 % of Control, the “Cell proliferation (% of Control)” value (HaCaT cells; 50 μM, 72 h) was 38 % of Control and the “Cell proliferation (% of Control)” value (HaCaT cells; 100 μM, 24 h) was 53.5 % of Control. The “Cell proliferation (% of Control)” value (HaCaT cells; 100 μM, 48 h) was 38.6 % of Control, the “Cell proliferation (% of Control)” value (HaCaT cells; 100 μM, 72 h) was 22.8 % of Control and the IC50 (HaCaT cells; 48 h) was 59.9 µM. The IC50 (HaCaT cells; 72 h) was 22.4 µM and the IC50 (PDE5A) was 136 µM.
